Experimental data reported in patent US8815900B2, “Compounds and compositions for reducing lipid levels” (CVI Pharmaceuticals Limited, priority 2007, dated 2014).
Structures can show the parent of a compound that is named as a salt.

Legend:
[1] = test system: LDLR mRNA expression in HepG2 cells; test: LDLR mRNA expression in HepG2 cells, quantitative real-time RT-PCR; assay type: cell-based, Human; conditions: 24 hours; for Activity on LDLR mRNA expression (Fold of control): dose less than or equal to 10 μM
Procedure: In yet another experiment, HepG2 cells were treated with various compounds for 24 hours at the indicated doses. Total RNA was isolated and 2 μg was used to generate cDNA in a reaction containing random primers and M-MLV at 37° C. for 1 hour in a volume of […] Real-time PCR was performed on the cDNA using MCEP REALPLEX 2 SYSTEM (Eppendorf) and Universal MasterMix (Applied Biosystems). Human LDLR and GAPDH Pre-Developed TaqMan Assay Reagents (Applied Biosystems) were used to assess the levels of mRNA expressions in HepG2. The levels of LDLR mRNA were normalized to that of GAPDH. Each RNA samples was assayed in triplicate. The abundance of LDLR mRNA in untreated cells was defined as 1, and the amounts of LDLR mRNA from compound-treated cells were plotted relative to that value in FIG. 13. The data shown are mean±s.d.
Activities of some compounds of Formulas I, II, III, and IV on LDLR mRNA expression were determined. HepG2 cells were treated with new compounds individually at a dose less than or equal to 10 μM for 24 hours. Total RNA was harvested for quantitative real-time RT-PCR analysis using the method described in Example 16B. […] In these experiments, berberine chloride was included for comparison.
Quantitative real-time RT-PCR was conducted, and triplicate was assayed in each RNA sample. The data are mean value of triplicates.
Total RNA was harvested for quantitative real-time RT-PCR analysis using method described in Examples 16B.

[2] = test system: LDLR ligand uptake activity in HepG2 cells; test: DiI-LDL uptake (LDLR ligand uptake activity) in HepG2 cells; assay type: cell-based, Human; conditions: 20 hours; further: key: +: slightly increased fluorescent intensity over control; ++: modestly increased fluorescent intensity over control; +++: strongly increased fluorescent intensity over control
Procedure: HepG2 cells (2×10^5 cells/well) in 24-well culture plates were treated with various compounds at indicated concentrations for 20 hours. The fluorescent 1,1′-dioctadecyl-3,3,3′,3′-tetramethylindocarbocyanin perchlorate (DiI-LDL) (Biomedical Technologies, Stoughton, Mass.) at a concentration of 2 μg/mL was added to cells at the end of treatment. After 4 hours, the medium was removed, cells were washed with cold PBS, and were examined immediately under a fluorescent microscope (Nikon) at 200× amplification. The fluorescent intensity in compound-treated cells was compared to that in untreated control cells. […] In these experiments berberine chloride was used for comparison.

[3] = test system: LDLR mRNA expression in HepG2 cells; test: LDLR mRNA expression in HepG2 cells, semi-quantitative RT-PCR; assay type: cell-based, Human; conditions: 8 hours, indicated doses, corrected by GAPDH mRNA (FIG. 3)
Procedure: HepG2 cells obtained from American Tissue Culture Collection (Manassas, Va., USA) were seeded in 6-well culture plates at a density of 0.8×10^6 cells/well cultured in EMEM containing 0.5% FBS and were treated with each purified compound at indicated doses for 8 hours. Total RNA was isolated, and 2 μg per sample was reverse transcribed with random primers using M-MLV (Promega) at 37° C. for 1 hour. PCR was carried out at 94° C. for 30 sec, 60° C. for 30 sec, and 72° C. for 30 sec with initial activation of the enzyme at 94° C. for 1 minute. Thirty cycles were performed for LDLR and GAPDH. PCR was performed using primers HLDLR-up and HLDLR-lo for LDLR and primers HGAPDH-up and HGAPDH-lo for GAPDH. The PCR products were separated on a 1% agarose gel and the band intensity was quantitated. LDLR mRNA levels were corrected by measuring GAPDH mRNA levels.
After the treatment, a portion of cells was harvested for total RNA, and another portion of cells was used for TG measurement. The LDLR mRNA levels were assessed by semi quantitative RT-PCR, and the cellular TG content was determined as described above.

[4] = test system: hypercholesterolemic hamsters; test: In vivo lipid lowering of (14R)-THP in hamsters on high cholesterol diet; design: species or system Golden Syrian male hamsters; conditions: 12 mg/kg daily i.p., 34 days
Source text: To determine whether the induction of hepatic LDLR expression by corydalis-derived compounds would result in total cholesterol (TC) and LDL-cholesterol (LDL-c) reductions in plasma, hypercholesterolemic hamsters were used as an animal model. In one experiment, 10 Golden Syrian male hamsters under a high cholesterol (HC) diet were divided into 2 groups.

[5] = test system: Wister male rats under a high fat and high cholesterol diet; test: Lipid lowering and body weight effects of (14R,13S)-CRDL hydrochloride salt in Wister rats; assay type: in vivo
Procedure: Male Wister rats were used as another animal model to examine the in vivo effects of (14R,13S)-CRDL in plasma lipid levels.
In one experiment, 18 Wister male rats under a high fat and high cholesterol diet were divided into 2 groups. One group was given (14R,13S)-CRDL hydrochloride salt orally at a daily dose of 75 mg/kg by an orogastric tube for 4 weeks, and the control group received daily treatment of equal amount of vehicle (0.1 M sodium phosphate, pH 3.5). Serum lipid levels were measured weekly.
At the end of treatment, Rats were sacrificed and blood and sera were collected to measure several critical parameters for liver function and kidney function. […] Kidney function and blood glucose level were not changed by the treatment (FIG. 11E).
The food intake and body weight gains were measured every week during the 4-week treatment period. […] In the first week, the amount of food consumed was decreased in CRDL-treated group. […] The ability of CRDL to activate AMPK signaling pathway to increase energy expenditure and to reduce fat accumulation likely contributes to this weight reducing effect.

[6] = Stability of compound 69 under cell culture conditions (LC-MS of medium); assay type: in vitro ADME; conditions: HepG2 culture medium, 20 μM
Procedure: HepG2 cells were cultured in 6-well cell culture plate in EMEM containing 0.5% FBS overnight. Compound 69+ was added to the culture medium to a final concentration of 20 μM. Medium was collected at 0 (control), 4, 8, or 24 hours after the compound addition.
The collected media were analyzed by LC-MS on a Thermo Fisher Scientific Surveyor HPLC system and LCQ ion trap MS with electrospray ionization source. A 50×2.1 mm Hypersil Gold C18 3 um column was used with a flow rate of 200 uL/min. The method conditions were 98% A (0.1% formic acid in water)/2% B (0.1% formic acid in acetonitrile) then a gradient to 95% B in 10 minutes. The injection volume was 10 uL.

[7] = HC diet, compared to untreated control group
[8] = (14R,13S)-CRDL hydrochloride salt orally 75 mg/kg daily, 4 weeks
[9] = end of 4-week treatment, 75 mg/kg daily orally

COc1ccc2c(c1O)CN1CCc3cc4c(cc3C1C2)OCO4 (stereo not shown) [Compound 34, 10-methoxy-5,6,7,8,13,13a-hexahydro-2H-1,3-dioxolano[4,5-g]isoquinolino[3,2-a]isoquinolin-9-ol]
Activity on LDLR mRNA expression (Fold of control) [1]: 1.76 ± 0.17 Fold of control
Activity on DiI-LDL uptake ([2]; A, compound dose ≦ 10 μM): ++

CN1CCc2cc3c(cc2[C@H]1[C@@H]1O[C@H](O)c2c1ccc1c2OCO1)OCO3 [d-(+)-EGN, (+)-egenine]
Activity on DiI-LDL uptake ([2]; A, compound dose ≦ 10 μM): +

COc1cc2c(cc1OC)[C@H]1Cc3ccc(OC)c(OC)c3CN1CC2 [14R-(+)-THP, 14R-(+)-tetrahydropalmatine]
LDLR mRNA expression, combined with statins ([1]; added to low dose simvastatin or fluvastatin (FIG. 17)): further improved the stimulatory effects of statins
LDLR mRNA expression [3]: potent and dose-dependent effects
Activity on DiI-LDL uptake ([2]; B, compound dose ≦ 40 μM): ++
adverse effects during the treatment period [4]: No adverse effects were observed
reduction of plasma TC [4, 7]: 31.6%
reduction of plasma TG [4, 7]: 35.93%
reduction of plasma non-HDL-c [4, 7]: 35.95%
gains of body weight during the treatment period ([4]; vs control group): very similar

COc1cc(NC(=O)Oc2c(OC)ccc3c2CN2CCc4cc5c(cc4C2C3)OCO5)cc(OC)c1 (stereo not shown) [Compound 45, N-(3,5-dimethoxyphenyl) (10-methoxy (5,6,7,8,13,13a-hexahydro-2H-1,3-dioxolano[4,5-g]isoquinolino[3,2-a]isoquinolin-9-yloxy)) carboxamide]
Activity on LDLR mRNA expression (Fold of control) [1]: 2.09 ± 0.11 Fold of control
Activity on DiI-LDL uptake ([2]; A, compound dose ≦ 10 μM): ++

CCOC(=O)Oc1c(OC)ccc2c1CN1CCc3cc4c(cc3C1C2)OCO4 (stereo not shown) [Compound 48, 10-methoxy-5,6,7,8,13,13a-hexahydro-2H-1,3-dioxolano[4,5-g]isoquinolino[3,2-a]isoquinolin-9-yl ethoxyformate]
Activity on LDLR mRNA expression (Fold of control) [1]: 1.45 ± 0.15 Fold of control

COc1ccc2c(c1OC(=O)N(C)C)CN1CCc3cc4c(cc3C1C2)OCO4 (stereo not shown) [Compound 43, (10-methoxy (5,6,7,8,13,13a-hexahydro-2H-1,3-dioxolano[4,5-g]isoquinolino[3,2-a]isoquinolin-9-yloxy))-N,N-dimethylcarboxamide]
Activity on LDLR mRNA expression (Fold of control) [1]: 1.95 ± 0.18 Fold of control
Activity on DiI-LDL uptake ([2]; A, compound dose ≦ 10 μM): ++

COc1ccc2c(c1OC(=O)Nc1ccccc1)CN1CCc3cc4c(cc3C1C2)OCO4 (stereo not shown) [Compound 61, (10-methoxy (5,6,7,8,13,13a-hexahydro-2H-1,3-dioxolano[4,5-g]isoquinolino[3,2-a]isoquinolin-9-yloxy))-N-benzamide]
Activity on LDLR mRNA expression (Fold of control) [1]: 1.33 ± 0.53 Fold of control

COc1cc2c(cc1OC)[C@H]1[C@@H](C)c3ccc(OC)c(OC)c3CN1CC2 [Compound 6, (13S,13aR)-2,3,9,10-tetramethoxy-13-methyl-5,6,7,8,13,13a-hexahydroiso-quinolino[2,1-b]isoquinoline hydrochloride]
LDL-c level, % of control [5, 8]: 25.6%
LDL-c level, % of day 0 [5, 8]: 22.4%
TC, % compared to the control group [5, 8]: 33.8%
TC, % of the pretreatment level [5, 8]: 33.0%
TG level, % of the control [5, 8]: 29%
TG level, % of the pretreatment level (day 0) [5, 8]: 27%
blood glucose level [5, 9]: not changed
kidney function (BUN, CREA) [5, 9]: not changed

COc1ccc2c(c1OS(=O)(=O)c1ccccc1)CN1CCc3cc4c(cc3C1C2)OCO4 (stereo not shown) [Compound 69, 9-benzene-sulfonyloxy-10-methoxy-5,8,13,13a-tetrahydro-6H-[1,3]dioxolo[4,5-g]isoquino[3,2-a] isoquinoline]
stability under cell culture conditions ([6]; up to 24 hours): fairly stable
Peak Area m/z 466.1 ([6]; 0 hours (control)): 2.38e8
Peak Area m/z 466.1 ([6]; 4 hours): 9.67e7
Peak Area m/z 466.1 ([6]; 8 hours): 9.22e7
Peak Area m/z 466.1 ([6]; 24 hours): 7.03e7

COc1ccc2c(c1OC(=O)Nc1ccc(OC(F)(F)F)cc1)CN1CCc3cc4c(cc3C1C2)OCO4 (stereo not shown) [Compound 44, (10-methoxy (5,6,7,8,13,13a-hexahydro-2H-1,3-dioxolano[4,5-g]isoquinolino[3,2-a]isoquinolin-9-yloxy))-N-[4-(trifluoromethoxy)phenyl]car-boxamide]
Activity on LDLR mRNA expression (Fold of control) [1]: 2.20 ± 0.06 Fold of control
Activity on DiI-LDL uptake ([2]; A, compound dose ≦ 10 μM): ++

(+)-corlumidin [(+)-CLMD]
LDLR mRNA expression [3]: potent and dose-dependent effects
Activity on DiI-LDL uptake ([2]; B, compound dose ≦ 40 μM): +

COc1ccc2c(c1OC(=O)NC(C)C)CN1CCc3cc4c(cc3C1C2)OCO4 (stereo not shown) [Compound 41, (10-methoxy (5,6,7,8,13,13a-hexahydro-2H-1,3-dioxolano[4,5-g]isoquinolino[3,2-a]isoquinolin-9-yloxy))-N-(methylethyl) carboxamide]
Activity on LDLR mRNA expression (Fold of control) [1]: 1.60 ± 0.03 Fold of control
Activity on DiI-LDL uptake ([2]; A, compound dose ≦ 10 μM): ++

COc1ccc2c(c1OC(=O)Nc1cccc(C)c1)CN1CCc3cc4c(cc3C1C2)OCO4 (stereo not shown) [Compound 46, (10-methoxy (5,6,7,8,13,13a-hexahydro-2H-1,3-dioxolano[4,5-g]isoquinolino[3,2-a]isoquinolin-9-yloxy))-N-(3-methylphenyl) carboxamide]
Activity on LDLR mRNA expression (Fold of control) [1]: 1.80 ± 0.16 Fold of control
Activity on DiI-LDL uptake ([2]; A, compound dose ≦ 10 μM): ++

COc1cc2c(cc1O)CCN1Cc3c(ccc(OC)c3OC)CC21 (stereo not drawn) [14R-(+)-CRPM, 14R-(+)-corypalmine]
LDLR mRNA expression [3]: potent and dose-dependent effects
Activity on DiI-LDL uptake ([2]; A, compound dose ≦ 10 μM): ++
